Molecules are shown by their SMILES.

Data set [1] can be described thus: Fluoride (TBAF in DMSO) induced chemiluminescence. The data set is classed as physicochemical.
Data set [2] can be described thus: Base-induced decay of chemiluminescence of hydroxyphenyl alkylthio dioxetane in 221 buffer pH 9.6 with surfactant enhancers. It counts as physicochemical. The following applies: for t1/2 (decay of chemiluminescence): 0.2 M 221 buffer, pH 9.6, 0.88 mM Mg+2, ambient temperature. Here is the method:
The first order decay of chemiluminescence of dioxetane 3 in 0.2 M 221 buffer, pH 9.6 containing 0.88 mM Mg^+2 and the surfactant enhancers shown below was measured at ambient temperature. Surfactant A is CTAB, B is poly(vinylbenzyltributylphosphonium chloride), C is poly(vinylbenzyltributylphosphonium chloride)-co-poly(vinylbenzyltrioctylphosphonium chloride), D is 1-trioctylphoniummethyl-4-tributylphosphonium-methylbenzene dichloride.

Data set [3] is described as follows: Base-induced decay of chemiluminescence of hydroxyphenyl alkoxy or aryloxy dioxetanes in 221 buffer pH 9.6. The following applies: 0.2 M 221 buffer, 0.88 mM Mg+2, 1.0 mg/mL 1-trioctylphosphoniummethyl-4-tributylphosphoniummethylbenzene dichloride. The data set is classed as physicochemical. Here is the method: The first order decay of chemiluminescence of dioxetanes 14-19 in 0.2 M 2-methyl-2-amino-1-propanol (221) buffer, pH 9.6 containing 0.88 mM Mg^+2 and 1.0 mg/mL of 1-trioctylphosphoniummethyl-4-tributylphosphoniummethylbenzene dichloride was measured at 37° C. in a Turner Designs (Sunnyvale, Calif.) model TD-20e luminometer. The half-lives of decay of chemiluminescence (t1/2) of hydroxy-dioxetanes correlate with the times required to reach the maximum light intensity (Imax) in the alkaline phosphatase-triggered decomposition of the corresponding phosphate-dioxetanes under the same conditions. […] It is expected that, for example, the phosphate derivatives of dioxetanes 14-19 as well as others which can be produced by the process described herein will be useful in alkaline phosphatase-linkedassays known in the art.

Data set [4] in a line: Chemiluminescence on heating.
The nature of data set [5]: Thermal stability / stability on silica of dioxetanes. It counts as physicochemical. The settings on record: TLC on silica versus NMR. The source says:
(c) Synthesis of 4-ethylthio-4-(3-pivaloyloxyphenyl)spiro-[1,2-dioxetane-3,2'-tricyclo[3.3.1.1^3,7 ]decane] (2).

As to `Oc1cccc(C2(SCC(F)(F)F)OOC23C2CC4CC(C2)CC3C4)c1` (centres unmarked) [Dioxetane 5, 4-(2,2,2-trifluoroethylthio)-4-(3-hydroxyphenyl)spiro[1,2-dioxetane-3,2'-tricyclo[3.3.1.1^3,7]decane]], the chemiluminescence colour result in data set [1] (excess TBAF in DMSO) was “orange-yellow light”.
For the compound `C=CCOC1(c2cccc(O)c2)OOC12C1CC3CC(C1)CC2C3` (centres unmarked) [Dioxetane 8, 4-(3-Hydroxyphenyl)-4-(2-propenyloxy) spiro[1,2-dioxetane-3,2'-tricyclo[3.3.1.1^3,7]decane]], the chemiluminescence colour entry in data set [1] (0.1 M TBAF in DMSO) is “blue emission”.
For `Oc1cccc(C2(Sc3ccc(F)cc3)OOC23C2CC4CC(C2)CC3C4)c1` (centres unmarked) [Dioxetane 3, 4-(p-Fluorophenylthio)-4-(3-hydroxyphenyl)spiro[1,2-dioxetane-3,2'-tricyclo-[3.3.1.1^3,7]decane]], the “t1/2 (decay of chemiluminescence)” value came out at 11.2 min in data set [2] (Surfactant A (CTAB) 0.41 g/L), 4.2 min in data set [2] (Surfactant B (poly(vinylbenzyltributylphosphonium chloride)) 0.5 g/L), 2.9 min in data set [2] (Surfactant C (poly(vinylbenzyltributylphosphonium chloride)-co-poly(vinylbenzyltrioctylphosphonium chloride)) 0.5 g/L) and 2.0 min in data set [2] (Surfactant D (1-trioctylphoniummethyl-4-tributylphosphonium-methylbenzene dichloride) 1.0 g/L). Besides, the “kinetics for light emission compared with dioxetane 6 or alkoxy-substituted analogues” value in data set [2] (alkaline amine buffer containing metal salts) was “comparable to dioxetane 6”.
`N#CCCOC1(c2cccc(O)c2)OOC12C1CC3CC(C1)CC2C3` (centres unmarked) [Dioxetane 9, 4-(2-Cyanoethoxy)-4-(3-hydroxyphenyl)spiro[1,2-dioxetane-3,2'-tricyclo-[3.3.1.1^3,7]decane]]: in data set [1] (0.1 M TBAF in DMSO), the chemiluminescence colour result is given as “blue emission”.
Regarding `Oc1cccc(C2(Oc3c(F)cccc3F)OOC23C2CC4CC(C2)CC3C4)c1` (centres unmarked) [Dioxetane 19, 4-(2',6'-Difluorophenoxy)-4-(3-hydroxyphenyl)spiro[1,2-dioxetane-3,2'-tricyclo[3.3.1.1^3,7]decane]], in data set [3], the “t1/2 37° C. (half-life of decay of chemiluminescence)” value was 1.76 min.
Turning to `COC1(c2cccc(OC(=O)C(C)(C)C)c2)OOC12C1CC3CC(C1)CC2C3` (centres unmarked) [Dioxetane 20, 4-Methoxy-4-(3-pivaloyloxyphenyl)spiro[1,2-dioxetane-3,2'-tricyclo-[3.3.1.1^3,7]decane]], the chemiluminescence colour entry in data set [1] (0.1 M TBAF in DMSO) is “blue emission”.
In the case of `Oc1cccc(C2(OCC(F)(F)C(F)(F)C(F)(F)F)OOC23C2CC4CC(C2)CC3C4)c1` (centres unmarked) [Dioxetane 18, 4-(2,2,3,3,4,4,4-Heptafluorobutoxy)-4-(3-hydroxyphenyl)spiro[1,2-dioxetane-3,2'-tricyclo[3.3.1.1^3,7]decane]], the “t1/2 37° C. (half-life of decay of chemiluminescence)” value in data set [3] is 4.9 min.
For `CC(C)OC1(c2cccc(O)c2)OOC12C1CC3CC(C1)CC2C3` (centres unmarked) [Dioxetane 7, 4-Isopropoxy-4-(3-hydroxyphenyl)spiro[1,2-dioxetane-3,2'-tricyclo[3.3.1.1^3,7]decane]], the chemiluminescence colour entry in data set [1] (0.1 M TBAF in DMSO) is listed as “blue emission”.
Still for that read-out and setting: with `COC1(c2cccc(O)c2)OOC12C1CC3CC(C1)CC2C3` (centres unmarked) [Dioxetane 6, 4-(3-Hydroxyphenyl)-4-methoxyspiro[1,2-dioxetane-3,2'-tricyclo[3.3.1.1^3,7]decane]] the entry was “blue emission”.
As for `Oc1cccc(C2(OCC(Cl)(Cl)Cl)OOC23C2CC4CC(C2)CC3C4)c1` (centres unmarked) [Dioxetane 15, 4-(3-Hydroxyphenyl)-4-(2 2,2-trichloroethoxy)spiro[1,2-dioxetane-3,2'-tricyclo-[3.3.1.1^3,7]decane]], the “t1/2 37° C. (half-life of decay of chemiluminescence)” value in data set [3] worked out at 3.7 min.
As for `CC(C)(C)C(=O)Oc1cccc(C2(Sc3ccc(F)cc3)OOC23C2CC4CC(C2)CC3C4)c1` (centres unmarked) [Dioxetane 4, 4-(p-Fluorophenylthio)-4-(3-pivaloyloxyphenyl)spiro[1,2-dioxetane-3,2'tricyclo-[3.3.1.1^3,7]decane]], the chemiluminescence colour entry in data set [1] (0.1 M TBAF in DMSO) is “yellow emission”; in data set [1] (excess TBAF in DMSO), “red chemiluminescence”.
Take `Oc1cccc(C2(OCC(Cl)Cl)OOC23C2CC4CC(C2)CC3C4)c1` (centres unmarked) [Dioxetane 16, 4-(2,2-Dichloroethoxy)-4-(3-hydroxyphenyl)spiro[1,2-dioxetane-3,2'-tricyclo-[3.3.1.1^3,7]decane]]: the “t1/2 37° C. (half-life of decay of chemiluminescence)” value in data set [3] was found to be 4.1 min.
Take `Oc1cccc(C2(OCC(F)(F)C(F)(F)F)OOC23C2CC4CC(C2)CC3C4)c1` (centres unmarked) [Dioxetane 17, 4-(3-Hydroxyphenyl)-4-(2,2,3,3,3-pentafluoropropoxy)spiro[1,2-dioxetane-3,2'-tricyclo[3.3.1.1^3,7]decane]]: the “t1/2 37° C. (half-life of decay of chemiluminescence)” value in data set [3] was found to be 3.4 min.
Take `COC1(c2cccc(O[Si](c3ccccc3)(c3ccccc3)C(C)(C)C)c2)OOC12C1CC3CC(C1)CC2C3` (centres unmarked) [Dioxetane 22]: in data set [4], the chemiluminescence on heating entry is “blue chemiluminescence”. In data set [1] (0.1 M TBAF in DMSO), the chemiluminescence colour result is given as “blue chemiluminescence”.
On to `CCSC1(c2cccc(OC(=O)C(C)(C)C)c2)OOC12C1CC3CC(C1)CC2C3` (centres unmarked) [Dioxetane 2, 4-Ethylthio-4-(3-pivaloyloxyphenyl)spiro[1,2-dioxetane-3,2'-tricyclo-[3.3.1.1^3,7]decane]], for which the stability on silica entry in data set [5] is “less stable on silica”. For the same compound, in data set [1] (excess TBAF in DMSO), the chemiluminescence colour entry is reported as “yellow chemiluminescence”.
In the case of `OCCOC1(c2cccc(O)c2)OOC12C1CC3CC(C1)CC2C3` (centres unmarked) [Dioxetane 10, 4-(2-Hydroxyethoxy)-4-(3-hydroxyphenyl)spiro[1,2-dioxetane-3,2'-tricyclo-[3.3.1.1^3,7]decane]], the chemiluminescence colour result in data set [1] (0.1 M TBAF in DMSO) is reported as “blue emission”.
For the compound `Oc1cccc(C2(OC(C(F)(F)F)C(F)(F)F)OOC23C2CC4CC(C2)CC3C4)c1` (centres unmarked) [Dioxetane 14, 4-(Hexafluoroisopropoxy)-4-(3-hydroxyphenyl)spiro[1,2-dioxetane-3,2'-tricyclo-[3.3.1.1^3,7]decane]], the “t1/2 37° C. (half-life of decay of chemiluminescence)” value in data set [3] came to 0.16 min.
Consider `COC1(c2cccc(O[Si](C)(C)C(C)(C)C)c2)OOC12C1CC3CC(C1)CC2C3` (centres unmarked) [Dioxetane 21], for which the chemiluminescence on heating result in data set [4] is given as “blue chemiluminescence”. In data set [1] (0.1 M TBAF in DMSO), the chemiluminescence colour result is “blue chemiluminescence”.
`Oc1cccc(C2(Oc3ccccc3)OOC23C2CC4CC(C2)CC3C4)c1` (centres unmarked) [Dioxetane 11, 4-(3-Hydroxyphenyl)-4-phenoxyspiro[1,2-dioxetane-3,2'-tricyclo[3.3.1.1^3,7]decane]]: the chemiluminescence colour entry in data set [1] (0.1 M TBAF in DMSO) is given as “blue emission”.
In the case of `CCSC1(c2cccc(O)c2)OOC12C1CC3CC(C1)CC2C3` (centres unmarked) [Dioxetane 1, 4-Ethylthio-4-(3-hydroxyphenyl)spiro[1,2-dioxetane-3,2'-tricyclo[3.3.1.1^3,7]decane]], the chemiluminescence colour entry is reported as “yellow emission” in data set [1] (0.1 M TBAF in DMSO) and “yellow chemiluminescence” in data set [1] (excess TBAF in DMSO).

The values above are taken from patent US5936101A, “Process for the preparation of 1,2-dioxetane compounds and novel sulfur-substituted 1,2-dioxetane compounds as intermediates” (Lumigen, Inc., priority 1997, dated 1999).
